From the NIST ThermoML archive (doi:10.1016/j.jct.2018.12.040)
Numbers after ± are expanded uncertainties.

Conditions: Liquid; for mass density: 298.15 K, 101.33 kPa, Pycnometric method

| Compound | mass density | Normal boiling temperature (Distillation) | Normal boiling temperature (boiling in a capillary) |
| --- | --- | --- | --- |
| C1CC1C(C1CC1)C1CC1 [tricyclopropylmethane] | 850 ± 1 kg/m3 | 160 ± 2 °C | – |
| O=[N+]([O-])C(C1CC1)(C1CC1)[N+](=O)[O-] [dicyclopropyldinitromethane] | 1239.7 ± 1 kg/m3 | – | 290 ± 3 °C |
